Assays:
[1] = test system: H4K16Ac (KAT8); assay: Histone acetylation biomarker western blot, MCF-7; type: cell-based; conditions: MCF-7 cells, 24 h, up to 30 μM
Procedure: Target engagement was assessed using the panel of MYST-dependent histone acetylation biomarkers defined above. […] While WM-3835 has been applied to study KAT7, its initial publication alludes to its ability to inhibit both KAT6A/B and KAT7.[14], [43] […] All commercial vendors currently market WM-3835 as a KAT7 inhibitor.
General materials and methods
Total protein on western blots was […]
manufacturer's protocols.
KAT capture and competitive chemoproteomic profiling […]
for 2 hours, then lyophilized.
12 μL triethylamine. […] The beads were then magnetically separated […]
distinguish between tightly grouped and diffuse clusters, compactness was quantified by calculating the average pairwise Euclidean distance between all points within each cluster. Clusters with lower average

[2] = test system: NCI-60 cell line panel; assay: NCI-60 cell line screen, sulforhodamine B growth inhibition; type: cell-based, human; conditions: 48 h

## COc1cccc(OC)c1S(=O)(=O)Nc1noc2cc(Cn3cccn3)cc(OC)c12 [PF-9363]
[1]
  inhibition of KAT8 (H4K16Ac): able to inhibit KAT8-catalyzed H4K16Ac
[2]; Homo sapiens, most cell lines of the NCI-60 panel, read-out: half-maximal growth inhibition (GI50)
  GI50: 10 to 100 µM
[2]; ≤ 1 μM
  tolerance of concentrations expected to primarily effect KAT6 and KAT7: generally well-tolerated
